Results taken from patent US20060189546A1, “Compounds for treating autoimmune and demyelinating diseases” (priority 2005, published 2006).

Tests used:
[1] = system: Collagen Antibody Induced Arthritis; settings: Lange et al., Annals of Rheumatoid Disease 64:599-605, 2005; cited from earlier work
[2] = system: Experimental Autoimmune Encephalomyelitis (EAE); assay: Acute EAE, daily dosing for 15 days (Example 5); type: in vivo, guinea pigs; settings: Symadex 6 mg/kg, mitoxantrone 0.35 mg/kg
Procedure: Accordingly, three randomized cohorts of guinea pigs with EAE induced by the method of Example 2, were treated, respectively, with 6 mg/kg of Symadex™ (full salt hydrate) and 0.35 mg/kg of mitoxantrone. Animals were treated daily, by intraperitoneal injection, for 15 days, starting on day 7 post immunization. Controls were treated with vehicle. We reasoned that 15 consecutive, 6 mg/kg doses of Symadex™ would represent a level of drug exposure that would be commensurate with the “20 mg/kg every 72 hours” regimen in Example 4 and consistent with a mid level exposure between the 20 mg/kg and the 40 mg/kg schedule given weekly, in Example 2. The mitoxantrone dose was selected to reflect a typical high dose given to rats or mice by daily dosing in the prior art, but allometrically scaled to the guinea pig.

T-lymphocyte cells = assay: Cell Proliferation, T-Cell + Con A ([3H]thymidine incorporation); type: cell-based, balb/c mice; settings: Mus musculus, T-Cell + Con A
Procedure: T-lymphocyte cells isolated from thymus of balb/c mice weighing 17±1 g were used. Test compound and/or vehicle is incubated with the cells (4×10^6/ml) in the presence of 3 μg/mL Concanavalin A (Con A) in AIM-V medium pH 7.4 at 37° C. for 24 hours. [^3H]Thymidine (120 nM) was then added for an additional overnight incubation period. Thymidine incorporation was assessed by liquid scintillation counting.
(§1) Test compound-induced suppression of cell proliferation by 50 percent or more (≧50%) relative to vehicle control response indicates significant inhibitory activity.

IL-4 = assay: Mediator release, IL-4 (Con A-stimulated PBML, sandwich ELISA); type: cell-based; settings: Homo sapiens
Procedure: (§2) In this experiment, test compound and/or vehicle were preincubated with human peripheral blood mononuclear leukocyte (PBML, 1×10^6/ml) in RPMI buffer pH 7.4 for 2 hours. Concanavalin A (Con A, 20 μg/ml) was then added to stimulate the cells overnight in 5% CO2 at 37° C. IL-4 and IL-10 cytokine levels in the conditioned medium were then quantified using a sandwich ELISA kit. Compounds were screened at 10, 1, 0.1, 0.01 and 0.001 μM.

IL-10 = assay: Mediator release, IL-10 (Con A-stimulated PBML, sandwich ELISA); type: cell-based; settings: Homo sapiens, IL-10 release
Procedure: as §2

B-lymphocyte cells = assay: Cell Proliferation, B-Cell + LPS ([3H]thymidine incorporation); type: cell-based, balb/c mice; settings: Mus musculus, B-Cell + LPS
Procedure: B-lymphocyte cells isolated from the spleen of balb/c mice weighing 17±1 g were used. Test compound and/or vehicle were incubated with the cells (1.5×10^6/ml) in the presence of 10 μg/ml lipopolysaccharide (LPS) in AIM-V medium pH 7.4 at 37° C. for 24 hours. [^3H]Thymidine (120 nM) was then added for an additional overnight incubation period. Thymidine incorporation was assessed by liquid scintillation counting.
as §1

[3] = 1 nM, read-out: % Growth Inhibition
[4] = 10 nM, read-out: % Growth Inhibition
[5] = 0.1 μM, read-out: % Growth Inhibition
[6] = 1 μM, read-out: % Growth Inhibition
[7] = 10 μM, read-out: % Growth Inhibition

For `CN(Cc1cnc2nc(N)nc(N)c2n1)c1ccc(C(=O)N[C@@H](CCC(=O)O)C(=O)O)cc1` [Methotrexate], which “benefit in antibody induced arthritis models” value [1] is on record?
Its value is “diminishing benefit”.

Which results are given for `O=C1c2c(O)ccc(O)c2C(=O)c2c(NCCNCCO)ccc(NCCNCCO)c21` [Mitoxantrone, reference compound]?
clinical score (neurological impairment) ([2]; daily i.p. for 15 days from day 7): the initial rise in neurological impairment is arrested; weight gain ([2]; daily i.p. for 15 days): impairs weight gain; reduction of meningeal inflammation (M) pathology score ([2]; necropsy after 15 daily doses): statistically significant reduction in meningeal inflammation; reduction of perivascular cuffing (P), myelitis (E) and demyelination (D) pathology scores ([2]; necropsy after 15 daily doses): statistically significant differences (p value<0.05) from control; IC50 (T-lymphocyte cells): 0.032 µM; inhibition at 0.001 µM (T-lymphocyte cells; [3]): -1%; inhibition at 0.01 µM (T-lymphocyte cells; [4]): 19%; inhibition at 0.1 µM (T-lymphocyte cells; [5]): 80%; inhibition at 1 µM (T-lymphocyte cells; [6]): 103%; inhibition at 10 µM (T-lymphocyte cells; [7]): 103%; % inhibition of IL-4 release at 0.001 µM (IL-4; [3]): 11%; % inhibition of IL-4 release at 0.01 µM (IL-4; [4]): 13%; % inhibition of IL-4 release at 0.1 µM (IL-4; [5]): 18%; % inhibition of IL-4 release at 1 µM (IL-4; [6]): -4%; % inhibition of IL-4 release at 10 µM (IL-4; [7]): 108%; IC50 (IL-4; IL-4 release): 2.96 µM; IC50 (IL-10): 0.759 µM; inhibition at 0.001 µM (IL-10; [3]): 2%; inhibition at 0.01 µM (IL-10; [4]): 1%; inhibition at 0.1 µM (IL-10; [5]): 5%; inhibition at 1 µM (IL-10; [6]): 60%; inhibition at 10 µM (IL-10; [7]): 102%; IC50 (B-lymphocyte cells): 0.00731 µM; inhibition at 0.001 µM (B-lymphocyte cells; [3]): 18%; inhibition at 0.01 µM (B-lymphocyte cells; [4]): 54%; inhibition at 0.1 µM (B-lymphocyte cells; [5]): 93%; inhibition at 1 µM (B-lymphocyte cells; [6]): 102%; inhibition at 10 µM (B-lymphocyte cells; [7]): 102%
